Test results: paper PMC6609550, “Blockade of the forward Na^+/Ca^2+ exchanger suppresses the growth of glioblastoma cells through Ca^2+‐mediated cell death” (British Journal of Pharmacology, 2019)

Columns and labels:
Format in all cases: cell-based, Human
U251 cells = experiment: Cell viability assay (Cell Counting Kit-8), U251; conditions: 72 hr, CCK-8; mean ± SEM
Experimental: (§1) Cell viability was determined by using a Cell Counting Kit‐8 (Dojindo, Japan). Briefly, cells were harvested from flasks and plated in 96‐well cell culture plates at 5 × 10^3 per well and cultured overnight. […] Control cells were treated with cell culture medium and measured at the same time point as treatment groups. CCK‐8 solution (10 μl) was added to each well of the 96‐well plates, and the cultures were incubated for 30 min at 37°C. Absorbance at 450 nm was measured using an automatic microplate reader (Molecular Devices, San Jose, CA, USA).
(§2) Figure 2 Effect of the Na^+/Ca^2+ exchanger (NCX) blockers on viability of human glioblastoma cell lines. (a, b) Viability of adult glioblastoma cell lines (U87 and U251) after exposure to NCX blockers bepridil, KB‐R7943, SEA0400, SN‐6, or YM244769 at 0–100 μM for 72 hr. n = 5 independent tests per group. (c) Viability of paediatric glioblastoma cell line SF188 after 72‐hr incubation with the same NCX blockers at 0–100 μM. n = 5 independent tests per group. (d) For U87, U251, and SF188 cell lines, concentration of the NCX blockers required to produce half maximal inhibition (IC50: μM, mean ± SEM) of cell viability.

U87 cells [1] = experiment: Cell viability assay (Cell Counting Kit-8), U87; conditions: 72 hr, CCK-8; mean ± SEM
Experimental: as §1, §2

SF188 cells = experiment: Cell viability assay (Cell Counting Kit-8), SF188; conditions: 72 hr, CCK-8; mean ± SEM
Experimental: as §1, §2

U87 cells [2] = experiment: Annexin V–FITC/PI apoptosis assay of U87 cells; conditions: for Effect on apoptosis (Annexin V+ cells), compound alone: bepridil 25 μM 6–48 hr, CB‐DMB 3.5 μM 6–48 hr, KB‐R7943 25 μM 20 hr, BAPTA‐AM 10 μM 18 hr, CC‐930 10 μM, PD169316 10 μM
Experimental: (§3) U87 cells were seeded in six‐well plates (Corning, Corning, NY, USA) with 1 × 10^6 cells per well and treated with NCX blockers, BAPTA‐AM, or MAPK inhibitors. Drug treatment was performed by the person who is blinded to the experimental groups. After treatment, cells were harvested in 15‐ml tubes and washed with cold sterile PBS. After being centrifuged, cells were fixed with 70% ethanol […] at 4°C for at least 1 hr. For propidium iodide (PI) staining, cells were washed one time with PBS and then were treated with ribonuclease A (RNase; 100 μg·ml^−1) for 30 min. PI (10 μg·ml^−1) was added, and stained cells were kept in the dark at 4°C until analysis. The number of cells analysed for each sample was 10,000 events. FACS analysis was performed using the Coulter CytoFlexS flow cytometer (Beckman Coulter, CA, USA), and the percentage of cells in the G0/G1, S, and G2/M phases was determined using cell cycle analysis software, ModFit LT 5.0 (Verity Software House, Topsham, ME, USA). For the apoptosis assay, cells were harvested and washed twice with cold PBS and resuspended at a density of 1 × 10^6 cells·ml^−1 in 100 μl of binding buffer containing 5 μl of Annexin V–FITC and 5 μl of PI working solution (100 μg·ml^−1). After incubation at room temperature for 15 min in the dark, 400 μl of binding buffer was added to each sample. Apoptosis was analysed by Coulter CytoFlexS flow cytometer (Beckman Coulter) for at least 10,000 events, and data were analysed with the software, CyExpert 2.0 (Beckman Coulter).

U87 cells [3] = experiment: Cell cycle assay (PI staining, flow cytometry) of U87 cells; conditions: bepridil 25 μM 6–24 hr, CB‐DMB 3.5 μM 6–24 hr, KB‐R7943 25 μM 18 hr, BAPTA‐AM 10 μM 18 hr, CC‐930 10 μM, PD169316 10 μM 18 hr
Experimental: as §3

[Na^+]i in U87 cells = Na+ imaging (ANG-2 AM) of U87 cells; conditions: bepridil 50 μM, KB‐R7943 50 μM, CB‐DMB 4 μM
Experimental: (§4) Cells were cultured in 96‐well plates at 8 × 10^3 per well and loaded with the cell membrane‐permeable Ca^2+ dye Fluo‐4 AM (5 μM) in 100‐μl HEPES‐buffered solution for 50 min. The solution contained (mM): 135 NaCl, 3 KCl, 2 CaCl2, 1 MgCl2, 10 glucose, and 10 HEPES, supplemented with 1% FBS at pH 7.4. To prepare the Ca^2+‐free solution, 2‐mM CaCl2 was replaced with 1‐mM EGTA in the HEPES‐buffered solution. The 96‐well plate containing the Fluo‐4 AM‐loaded cells was mounted in a Leica TCS SP8 confocal system (Leica Microsystems, Wetzlar, Germany). The confocal microscope armed with 488‐nm laser light was employed to excite the dynamic fluorescent signals in time and synchronously, while test regents were added to cells. To do Na^+ imaging, Fluo‐4 AM was replaced with the cell membrane‐permeable Na^+ dye Asante NaTrium Green‐2 AM (ANG‐2 AM) at 5 μM, which was excited by 514‐nm laser light. Visual inspection and fluorescent imaging were carried out at room temperature. The imaging data were analysed with the software https://leica-las-af-lite.software.informer.com/ 2.5 (Leica). The imaging traces shown are representative of at least three separate experiments; 12–18 cells were imaged in each experiment.

[Ca^2+]i in U87 cells = Ca2+ imaging (Fluo-4 AM) of U87 cells
Experimental: as §4

[4] = Cell viability assay (Cell Counting Kit-8), ranges given for U87 and U251 together; conditions: human, U87 and U251 cells, read-out: Cell viability, % of control level
Experimental: Cell viability was determined by using a Cell Counting Kit‐8 (Dojindo, Japan). Briefly, cells were harvested from flasks and plated in 96‐well cell culture plates at 5 × 10^3 per well and cultured overnight. Cells were treated with test reagents for 72 hr. Control cells were treated with cell culture medium and measured at the same time point as treatment groups. CCK‐8 solution (10 μl) was added to each well of the 96‐well plates, and the cultures were incubated for 30 min at 37°C. Absorbance at 450 nm was measured using an automatic microplate reader (Molecular Devices, San Jose, CA, USA).

forward NCX = experiment: Whole-cell patch-clamp recording of forward-mode NCX currents in U87 cells; conditions: for IC50: forward NCX current measured at −110 mV, mean ± SEM, n = 4, read-out: IC50, blocking forward NCX (currents); for Inhibition of the forward NCX currents (in words): −110 mV, SEA0400 0.1–100 μM, SN‐6 and YM244769 0.1–30 μM
Experimental: (§5) Whole‐cell patch‐clamp recording was performed using a Multiclamp 700B amplifier (Molecular Devices, Foster City, CA, USA) at room temperature. Voltage protocols were provided and current recorded via a DigiData‐1550B interface (Molecular Devices) controlled by pClamp 10 Software (Molecular Devices, RRID:SCR_011323). […] Internal solution consisted of (in mM): 120 CsCl, 20 NaCl, 2 MgCl2, 13 CaCl2, 2 Na2ATP, 20 BAPTA, and 10 HEPES at a pH 7.2. […] Series resistance was compensated by 75–85%. Linear leak and residual capacitance currents were subtracted online using a P/4 protocol of the pClamp 10. For the recording of the membrane currents related to the NCX, cells were held at −50 mV and depolarized to +60 mV, and then a voltage ramp starting from +60 to −120 mV was applied for 1,000 ms before returning back to −50 mV. The reverse and forward NCX currents were measured at +50 and −110 mV holding potentials respectively (Molinaro et al., 2008; Rahman, Inman, Kiss, & Janssen, 2012; Song, Chen, & Yu, 2014). Data were filtered at 3 KHz and digitized at sampling rates of 20 KHz. For drug application, cells were perfused with a VC‐6 Six Channel Perfusion Valve Control Systems (Warner Instruments, Greenwich, CT, USA) connected to a gravity‐fed perfusion systems.
(§6) Data are expressed as mean ± SEM and analysed by Prism 7 software, La Jolla, CA (GraphPad Prism, RRID:SCR_002798). The data and statistical analysis comply with the recommendations of the British Journal of Pharmacology on experimental design and analysis in pharmacology. Concentrations of the NCX blockers (IC50) exerting half‐maximal inhibition of NCX currents were obtained by fitting the concentration–response with the equation: I/I0*100%=Bottom+Top−Bottom/1+10^((^Log^IC50−C)*n) , where I 0 and I are current amplitudes measured in control and in the presence of NCX blockers, C is the logarithm of concentration, and n is the Hill coefficient. The statistical difference between two independent groups was analysed by Student's parametric unpaired t test. And the original data of more than two groups were assessed by the parametric one‐way ANOVA followed by a Tukey's post hoc test. The data for cell viability and Western blot were usually normalized to the control group, and were thus analysed by the non‐parametric Kruskal–Wallis test followed by a Dunn's post hoc test. Differences were considered to be significant when P < .05. Post hoc tests were conducted when the F value achieved the necessary level (P < .05) and there was no significant variance inhomogeneity.
(§7) We characterized the membrane currents associated with NCX activity in glioblastoma cells using whole‐cell patch‐clamp recording. […] The NCX current in its reverse mode (Ca^2+ entry) was measured at +50, and the forward‐mode current (Ca^2+ exit) was measured at −110 mV. The Ni^2+ (10 mM) was employed to inhibit and identify the NCX currents in its either reverse or forward mode as previously reported (Maack, Ganesan, Sidor, & O'Rourke, 2005).

reverse NCX = experiment: Whole-cell patch-clamp recording of reverse-mode NCX currents in U87 cells; conditions: reverse NCX current measured at +50 mV, mean ± SEM, n = 4, read-out: IC50, blocking reverse NCX (currents)
Experimental: as §5, §6, §7

Row | IC50 (U251 cells) | IC50 (U87 cells [1]) | IC50 (forward NCX) | IC50 (reverse NCX) | Compound | IC50 (SF188 cells) | Effect on apoptosis (Annexin V+ cells), compound alone (U87 cells [2]) | Effect on cell cycle distribution, compound alone (U87 cells [3]) | Effect on intracellular Na+ [Na+]i level ([Na^+]i in U87 cells) | Effect on intracellular Ca2+ pool and ER Ca2+ transporting ([Ca^2+]i in U87 cells; Ca2+‐free solution, followed by 5‐μM thapsigargin) | Effect on [Ca2+]i level ([Ca^2+]i in U87 cells; solution containing 2‐mM Ca2+, bepridil or KB‐R7943 25 or 50 μM, CB‐DMB 2 and 4 μM) | Effect on bepridil-induced apoptosis (U87 cells [2]; bepridil 25 μM 24 hr, pretreatment BAPTA‐AM 10 μM, CC‐930 10 μM or PD169316 10 μM) | viability at 72 h, 10 µM [4] | viability at 72 h, 20 µM [4] | viability at 72 h, 50 µM [4] | Inhibition of the forward NCX currents (in words) (forward NCX)
1 | – | – | > 30 µM | 3.6 ± 1.2 µM | CCOc1ccc(Oc2ccc(OCc3cc(F)ccc3F)cc2)c(N)c1 [SEA0400, 2‐[4‐[(2,5‐difluorophenyl)methoxy]phenoxy]‐5‐ethoxyaniline] | – | – | – | – | – | – | – | 93 to 106% | 88 to 103% | 72 to 92% | without inhibition of the forward NCX currents
2 | – | – | > 30 µM | 3.2 ± 1.2 µM | CCOC(=O)C1CSC(Cc2ccc(OCc3ccc([N+](=O)[O-])cc3)cc2)N1 (stereo not shown) [SN‐6, 2‐[[4‐[(4‐nitrophenyl)methoxy]phenyl]methyl]‐4‐thiazolidinecarboxylic acid ethyl ester] | – | – | – | – | – | – | – | 87 to 97% | 86 to 99% | 74 to 104% | without inhibition of the forward NCX currents
3 | – | – | > 30 µM | 4.5 ± 1.1 µM | Cl.Cl.Nc1cccc(CNC(=O)c2ccc(Oc3ccc(OCc4cccc(F)c4)cc3)nc2)c1 [YM244769, N‐[(3‐aminophenyl)methyl]‐6‐[4‐[(3‐fluorophenyl)methoxy]phenoxy]‐3‐pyridinecarboxamide dihydrochloride] | – | – | – | – | – | – | – | 87 to 100% | 84 to 96% | 71 to 76% | without inhibition of the forward NCX currents

More lines, now with the values behind:

Row | Compound | IC50 (U251 cells) | IC50 (U87 cells [1]) | IC50 (forward NCX) | IC50 (reverse NCX) | IC50 (SF188 cells) | Effect on apoptosis (Annexin V+ cells), compound alone (U87 cells [2]) | Effect on cell cycle distribution, compound alone (U87 cells [3]) | Effect on intracellular Na+ [Na+]i level ([Na^+]i in U87 cells) | Effect on intracellular Ca2+ pool and ER Ca2+ transporting ([Ca^2+]i in U87 cells; Ca2+‐free solution, followed by 5‐μM thapsigargin) | Effect on [Ca2+]i level ([Ca^2+]i in U87 cells; solution containing 2‐mM Ca2+, bepridil or KB‐R7943 25 or 50 μM, CB‐DMB 2 and 4 μM) | Effect on bepridil-induced apoptosis (U87 cells [2]; bepridil 25 μM 24 hr, pretreatment BAPTA‐AM 10 μM, CC‐930 10 μM or PD169316 10 μM) | viability at 72 h, 10 µM [4] | viability at 72 h, 20 µM [4] | viability at 72 h, 50 µM [4] | Inhibition of the forward NCX currents (in words) (forward NCX)
4 | Cc1ccc(CNC(N)=NC(=O)c2nc(Cl)c(NCc3ccc(Cl)cc3)nc2N)c(C)c1 [CB‐DMB, [N‐(4‐chlorobenzyl)]2,4‐dimethylbenzamyl] | 2.7 ± 0.1 µM | 3.1 ± 0.6 µM | – | – | 2.6 ± 0.1 µM | activated apoptosis in time‐dependent manner | induced G0/G1 arrest | did not change | did not affect the ER Ca^2+ transporters | elevated [Ca^2+]i | – | – | – | – | –
5 | O[C@H]1CC[C@H](Nc2ncc3nc(Nc4c(F)cc(F)cc4F)n([C@H]4CCOC4)c3n2)CC1 [CC‐930, tanzisertib] | – | – | – | – | – | did not activate apoptosis | – | – | – | – | attenuated | – | – | – | –
